Laboratory results reported in EP0237348A1, “Cell protection” (THE WELLCOME FOUNDATION LIMITED, priority 1986, dated 1987).

Tested on: Myocaridal infarct size
Experiment: Myocardial infarct size after 90 minute LAD occlusion and reperfusion in anaesthetized dogs (ex vivo TTC / Evans blue dual perfusion)
Parameters: species or system Male beagle dogs
Details: for % Area at Risk * Infarcted: 10 mg/kg intravenously over five minutes beginning fifteen minutes prior to reperfusion, 90 minute LAD occlusion, infarct quantified 24 hours after occlusion, means ± standard error
Procedure: Male beagle dogs (10-12 kg) were anaesthetized with pentobarbital sodium, intubated, and ventilated with room air via a Harvard respirator. Catheters for infusion and arterial blood pressure measurements were implanted in the left jugular vein and left carotial artery. A thoracotomy was performed at the fourth intercostal space, the heart suspended in a percardial cradle and the left anterior descending artery (LAD) isolated just below the first major diagonal branch. An electromagnetic flow probe was placed on LAD. A 90 minute occlusion of the LAD was produced by placing a snare of 1/0 silk sutre distel to the flow probe. Treatment was initiated intravenously fifteen minutes prior to release of this snare occlusion and continued for 45 minutes after release. The thoracotomy was closed, and the animals were allowed to recover from the surgical procedures. The animals were reanaesthetized 24 hours after the occlusion, and the flow in the LAD reassessed. Then the heart was removed for post mortem quantification of infarct size.
Three groups of dogs were evaluated. Group 1 consisted of saline controls. Group 2 were administered allopurinol and group 3 were administered oxypurinol. Allopurinol and oxypurinol were dissolved, separately, in O.I.N. sodium hydroxide and back-titrated to pH 9.3. The formulations were adminstered intravenously over five minutes beginning fifteen minutes prior to reperfusion.
Myocaridal infarct size was quantified by an ex vivo dual reperfusion technique. Cannulas were inserted into the LAD immediately distel to the site of occlusion and into the aorta above the coronary ostia. The LAD coronary bed that was perfused with 1.5% triphenyl tetrazolium hydrochloride (TTC) in 0.02 M potassium phosphate buffer, pH 7.4. The aorta was perfused in a retrograde manner with 0.5% Evans blue dye. Both regions ere perfused with their respective stains at a constant pressure of 100 mm mercury for five minutes. The heart was cut into 8 mm slices perpendicular to the apex-base axis. The area of the left ventrical at risk of infarction due to aatomical dependence on the LAD for blood flow is identified by the lack of Evans blue in this region. The region of infarcted myocardium within the area was demarcated by the lack of staining of the tissue when perfused with TTC due to a loss of dehydrogenase enzymes.
The transverse ventricular sections were traced carefully on to clear acrylic overlays to provide a permanent record of infarcted methology and to allow planimetric confirmation of infarct size. Ventricular sections then were trimmed of right ventricular muscle, valvular, and fatty tissue. Total left ventricular, area at risk, and infarct was separated by careful dissection and weighted. Infarct size was expressed as a percentage of the anatomic area at risk. […]

| Compound | % Area at Risk * Infarcted | Reduction of area at risk (infarcted) compared with saline and allopurinol (10 mg/kg i.v. fifteen minutes prior to reperfusion, significance criterion p less than 0.05 (ANOVA, Bonferroni)) | Reducing cellular injury when administered after ischemia (and before reperfusion) (administered after ischemia and before reperfusion, summary statement) |
| --- | --- | --- | --- |
| Oc1ncnc2[nH]ncc12 [Allopurinol] | 43.1 ± 6.1% |  |  |
| O=c1[nH]c(=O)c2c[nH]nc2[nH]1 [Oxypurinol, 4,6-dihydroxypyrazola(3,4-d)pyrimidine] | 19.0 ± 1.7% | significantly reduced | effective |
